Source: patent US6251893A, “Bicyclic piperidine and piperazine compounds having 5-HT6 receptor affinity” (NPS Allelix Corp., priority 1998, dated 2001)

Legend:
5-HT7 receptor = 5-HT7 receptor (Homo sapiens, UniProt P34969); assay: Binding to 5-HT7 receptor (selectivity); parameters: dose or concentration left out as unconfirmed; conditions: selectivity versus 5-HT6; read-out: percent inhibition for the 5-HT7 receptor
5HT2C receptor = target: T1, 5HT2C receptor (Homo sapiens, UniProt P28335); assay: Binding to 5HT2C receptor (selectivity); conditions: selectivity versus 5-HT6; read-out: percent inhibition for the 5HT2C receptor
T1 sequence (P28335 33-458): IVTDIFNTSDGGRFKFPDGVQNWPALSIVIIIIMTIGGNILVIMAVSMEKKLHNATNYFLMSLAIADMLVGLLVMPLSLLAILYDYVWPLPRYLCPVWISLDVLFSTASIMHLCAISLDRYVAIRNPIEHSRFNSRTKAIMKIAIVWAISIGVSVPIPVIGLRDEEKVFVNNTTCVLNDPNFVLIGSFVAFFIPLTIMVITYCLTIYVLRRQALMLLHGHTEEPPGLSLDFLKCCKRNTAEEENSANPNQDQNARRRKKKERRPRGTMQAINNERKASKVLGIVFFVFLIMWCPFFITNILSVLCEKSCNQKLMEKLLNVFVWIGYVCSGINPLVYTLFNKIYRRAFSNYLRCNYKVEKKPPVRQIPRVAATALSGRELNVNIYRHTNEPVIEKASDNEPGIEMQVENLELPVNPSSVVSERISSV

human 5HT6 receptor [1] = target: T2, human 5HT6 receptor (Homo sapiens, UniProt P50406); assay: Binding affinity for the 5-HT6 receptor (3H-LSD displacement); parameters: expressed in transfected cells; conditions: 100 nM test compound; 3H-LSD (2 nM); 60 minute incubation at 37° C; read-out: percent inhibition of radioligand binding for the 5-HT6 receptor
Procedure: Binding Affinity for the 5-HT6 Receptor
The assay protocol generally entailed the incubation of membranes prepared from cells expressing the 5-HT6 receptor with ^3 H-LSD (2 nM). Increasing levels of the test compound were incubated with the radioligand and the membrane homogenates prepared from the recombinant cells. After a 60 minute incubation at 37° C., the incubation was terminated by vacuum filtration. The filters were washed with buffer and the filters were counted for radioactivity using liquid scintillation spectrometry. […] Concentrations ranging from 10^-11 M to 10^-5 M of the test compound were evaluated. […] Affinity for the 5-HT6 receptor is expressed as the amount (in percent) of binding of the radioligand that is inhibited in the presence of 100 nM of test compound. A greater percent inhibition indicates greater affinity for the 5-HT6 receptor.

5-HT2A receptor = 5-HT2A receptor (Homo sapiens, UniProt P28223); assay: Binding to 5-HT2A receptor (selectivity); parameters: dose or concentration left out as unconfirmed; conditions: selectivity versus 5-HT6; read-out: percent inhibition for the 5-HT2A receptor
human 5HT6 receptor [2] = target: T2, human 5HT6 receptor; assay: Functional assay: reversal of serotonin-stimulated adenyl cyclase activity (cAMP) in HEK 293 cells stably expressing the human 5HT6 receptor; assay type: cell-based; parameters: cAMP functional assay in whole cells; conditions: 100 nM and 10 μM test compound with serotonin
Procedure: The 5HT6 receptor responds to serotonin and other agonists by increasing adenyl cyclase mediated production of cyclic AMP. Particular test compounds were assayed for their effect on adenyl cyclase activity using the procedure described below.
Compounds acting as antagonists at the 5HT6 receptor will antagonize the agonist effect of serotonin and thus, will block the serotonin-inducedincrease in adenyl cyclase activity.
HEK 293 cells stably expressing the human 5HT6 receptor were plated in 6 well plates in DMEM (Dulbecco's Modified Eagle Medium)/F12 (Nutrient Mixture F12-Ham) media with 10% FCS (fetal calf serum) and G418 (Geneticen Disulfate, 500 ug/ml), and incubated at 37° C. in a CO2 incubator. The cells were allowed to grow to about 70% confluence before use in the assay.
The culture medium of each well was removed, and the wells were washed once with serum free media. Then 2 ml of SFM+IBMX medium (SFM with 0.5 mM IBMX, 3-isobutyl-1-methylxanthine, 0.1% ascorbic acid and 10 mM pargyline) was added to each well and the wells were incubated at 37° C. for 10 min. Following incubation, the SFM+IBMX medium was removed from each well and fresh SFM+IBMX media was added to the wells separately with one of a) serotonin (1 μM final concentration); b) test compound (100 nM and 10 μM, to test for agonist activity); and c) test compound (100 nM and 10 μM) along with serotonin ([…], to test for antagonist activity). Basal adenyl cyclase activity was determined from wells with only SFM+IBMX media added.
The cells were then incubated at 37° C. for 30 minutes in a CO2 incubator. Following incubation, the media were removed from each well. The wells were washed once with 1 ml of PBS (phosphate buffered saline). Each well was then treated with 1 mL cold 95% ethanol:5 mM EDTA (2:1) at 4° C. for 1 hour. The cells from each well were then scraped and transferred into individual Eppendorf tubes. The tubes were centrifuged for 5 minutes at 4° C., and the supernatants were transferred to new Eppendorf tubes and stored at 4° C. The pellets were discarded and the supernatants were stored at 4° C. until assayed for cAMP concentration. cAMP content for each extract was determined in duplicate by EIA (enzyme-immunoassay) using the Amersham Biotrak cAMP EIA kit (Amersham RPN 225). Final results were expressed as % basal response for agonists and % reversal of serotonin response for antagonists.
The total stimulation of adenyl cyclase by serotonin (So) was determined as the difference in concentration of cAMP in the serotonin-treated cells (Cd) and the basal-treated cells (Cf).
The net stimulation (S) of basal adenyl cyclase by an agonist test compound was determined as the difference in cAMP concentration in the drug-treatedcell (C) and the basal-treated cells (Cf).
The net stimulation (Ss) of basal adenyl cyclase by serotonin in the presence of an antagonist test compound was determined as the difference in cAMP concentration in the serontonin-drug-treated cells (Cs) and the basal-treated cells (Cf).
The ability of the antagonist test compound to reverse the serotonin stimuation of adenyl cyclase activity (% reversal, % R) was determined by the formula: […]

T2 sequence (P50406 whole entry): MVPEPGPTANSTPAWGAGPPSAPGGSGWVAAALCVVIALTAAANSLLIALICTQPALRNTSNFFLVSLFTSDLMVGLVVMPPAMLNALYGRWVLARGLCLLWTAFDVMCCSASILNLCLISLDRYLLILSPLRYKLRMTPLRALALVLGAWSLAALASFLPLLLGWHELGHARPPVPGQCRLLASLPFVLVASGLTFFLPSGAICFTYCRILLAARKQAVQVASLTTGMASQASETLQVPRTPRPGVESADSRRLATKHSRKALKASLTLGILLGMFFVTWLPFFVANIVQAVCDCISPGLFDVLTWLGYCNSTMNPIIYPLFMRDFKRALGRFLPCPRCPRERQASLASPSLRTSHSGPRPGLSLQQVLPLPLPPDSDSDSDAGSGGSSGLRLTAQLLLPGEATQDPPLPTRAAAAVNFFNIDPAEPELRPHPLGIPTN
Chain of 5-HT7 receptor (P34969 whole entry): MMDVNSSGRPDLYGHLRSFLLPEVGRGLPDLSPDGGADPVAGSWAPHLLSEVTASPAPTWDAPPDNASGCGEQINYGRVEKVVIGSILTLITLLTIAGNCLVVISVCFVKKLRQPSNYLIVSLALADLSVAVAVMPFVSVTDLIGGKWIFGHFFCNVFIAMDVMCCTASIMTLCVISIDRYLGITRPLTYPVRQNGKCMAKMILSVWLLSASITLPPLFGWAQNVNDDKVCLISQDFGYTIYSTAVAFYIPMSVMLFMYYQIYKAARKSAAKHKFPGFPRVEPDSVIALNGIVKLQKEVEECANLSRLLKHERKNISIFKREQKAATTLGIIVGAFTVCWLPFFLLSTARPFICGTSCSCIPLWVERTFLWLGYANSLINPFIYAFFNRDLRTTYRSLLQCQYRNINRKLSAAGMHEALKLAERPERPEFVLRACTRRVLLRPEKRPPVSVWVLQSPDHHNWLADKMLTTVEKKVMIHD
Chain of 5-HT2A receptor (P28223 whole entry): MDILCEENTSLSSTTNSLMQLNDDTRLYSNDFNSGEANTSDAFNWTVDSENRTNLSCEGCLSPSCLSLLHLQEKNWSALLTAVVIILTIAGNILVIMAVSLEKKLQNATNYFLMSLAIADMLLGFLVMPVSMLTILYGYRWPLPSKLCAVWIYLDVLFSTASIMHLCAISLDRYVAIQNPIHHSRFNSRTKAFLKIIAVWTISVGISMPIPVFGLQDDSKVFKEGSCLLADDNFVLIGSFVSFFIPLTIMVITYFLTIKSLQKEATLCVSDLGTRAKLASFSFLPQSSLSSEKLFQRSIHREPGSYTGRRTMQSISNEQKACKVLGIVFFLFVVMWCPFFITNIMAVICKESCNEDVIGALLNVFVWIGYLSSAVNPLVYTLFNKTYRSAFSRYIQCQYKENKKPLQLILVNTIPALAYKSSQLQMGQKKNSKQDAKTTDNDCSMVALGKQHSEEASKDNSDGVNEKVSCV

Row | Compound | inhibition (5-HT7 receptor) [%] | inhibition at 0.1 µM (5HT2C receptor) [%] | inhibition at 0.1 µM (human 5HT6 receptor [1]) [%] | inhibition (5-HT2A receptor) [%] | reversal of serotonin stimulation of adenyl cyclase (5-HT6 receptor antagonism) (human 5HT6 receptor [2])
1 | O=S(=O)(c1ccc(F)cc1)n1cc(C2=CCN3CCCC3C2)c2cc(F)ccc21 (racemic) [Example 6aa, 5-Fluoro-1-(4-fluorophenylsulfonyl)-3-[(8a-R,S)-1,2,3,5,8,8a-hexahydro-7-indolizinyl]indole] | < 20 | < 20 | > 80 | < 20 | 
2 | O=S(=O)(c1ccc2ccccc2c1)n1cc(C2=CCN3CCCC3C2)c2cc(F)ccc21 (racemic) [Example 6z, 5-Fluoro-3-[(8a-R,S)-1,2,3,5,8,8a-hexahydro-7-indolizinyl]-1-(2-naphthalenesulfonyl)indole] | < 20 | < 20 | > 80 | < 20 | 
3 | CC(C)(C)c1ccc(S(=O)(=O)n2cc(C3=CCN4CCCC4C3)c3cc(F)ccc32)cc1 (racemic) [Example 6gg, 1-(4-t-Butylphenylsulfonyl)-5-fluoro-3-[(8a-R,S)-1,2,3,5,8,8a-hexahydro-7-indolizinyl]indole] | < 20 | < 20 | > 80 | < 20 | 
4 | Cc1ccc2c(c1)c(C1=CCN3CCCC3C1)cn2S(=O)(=O)c1cccc2ccccc12 (racemic) [Example 6qq, 5-Methyl-3-[(8a-R,S)-1,2,3,5,8,8a-hexahydro-7-indolizinyl]-1-naphthalenesulfonylindole] | < 20 | < 20 | > 80 | < 20 | 
5 | Cc1cccc2c(C3=CCN4CCCC4C3)cn(S(=O)(=O)c3cccc4ccccc34)c12 (racemic) [Example 6tt, 7-Methyl-3-[(8a-R,S)-1,2,3,5,8,8a-hexahydro-7-indolizinyl]-1-naphthalenesulfonylindole] | < 20 | < 20 | > 80 | < 20 | 
6 | O=S(=O)(c1ccccc1)n1cc(C2CCN3CCCC3C2)c2cc(F)ccc21 (single isomer, unassigned; isomer ii) [Example 10d, 5-Fluoro-3-[(7R or 7S)(8a-R,S)-octahydrohydro-7-indolizinyl]-1-phenylsulfonylindole, Isomer II] |  |  |  |  | able to reverse the serotonin stimulation of adenyl cyclase
7 | Cc1ccc(S(=O)(=O)n2cc(C3=CCN4CCCC4C3)c3cc(F)ccc32)cc1 (racemic) [Example 6dd, 5-Fluoro-3-[(8a-R,S)-1,2,3,5,8,8a-hexahydro-7-indolizinyl]-1-(4-methylphenylsulfonyl)indole] | < 20 | < 20 | > 80 | < 20 | 
8 | O=S(=O)(c1ccccc1Br)n1cc(C2=CCN3CCCC3C2)c2cc(F)ccc21 (racemic) [Example 6cc, 1-(2-Bromophenylsulfonyl)-5-fluoro-3-[(8a-R,S)-1 ,2,3,5,8,8a-hexahydro-7-indolizinyl]indole] | < 20 | < 20 | > 80 | < 20 | 
9 | Cc1cccc2c(C3=CCN4CCCC4C3)cn(S(=O)(=O)c3ccccc3)c12 (racemic) [Example 6ss, 7-Methyl-3-[(8a-R,S)-1,2,3,5,8,8a-hexahydro-7-indolizinyl]-1-phenylsulfonylindole] | < 20 | < 20 | > 80 | < 20 | 
10 | CC(C)(C)c1ccc(S(=O)(=O)n2cc(N3CCN4CCCC4C3)c3ccccc32)cc1 (racemic) [Example 6d, 1-(4-t-Butylphenylsulfonyl)-3-[(6-R,S)-1,4-diaza[4.3. 0]bicyclonon-4-yl]indole] | < 20 | < 20 | > 80 | < 20 | 
11 | O=S(=O)(c1ccc(Br)cc1)n1cc(N2CCN3CCCC3C2)c2ccccc21 (racemic) [Example 6c, 1-(4-Bromophenylsulfonyl)-3-[(6-R,S)-1,4-diaza[4.3. 0]bicyclonon-4-yl]indole] | < 20 | < 20 | > 80 | < 20 | 
12 | O=S(=O)(c1ccc2ccccc2c1)n1cc(N2CCN3CCCC3C2)c2ccccc21 (racemic) [Example 6a, 3-[(6-R,S)-1,4-Diaza[4.3. 0]bicyclonon-4-yl]-1-(2-naphthalenesulfonyl)indole] | < 20 | < 20 | > 80 | < 20 | 
13 | COc1ccc2c(c1)c(C1=CCN3CCCC3C1)cn2S(=O)(=O)c1ccccc1 (racemic) [Example 6mm, 5-Methoxy-3-[(8a-R,S)-1,2,3,5,8,8a-hexahydro-7-indolizinyl]-1-phenylsulfonylindole] | < 20 | < 20 | > 80 | < 20 | 
14 | O=S(=O)(c1ccccc1)n1cc(C2=CCN3CCCC3C2)c2cc(F)cc(F)c21 (racemic) [Example 6jj, 5,7-Difluoro-3-[(8a-R,S)-1,2,3,5,8,8a-hexahydro-7-indolizinyl]-1-phenylsulfonylindole] | < 20 | < 20 | > 80 | < 20 | 
15 | O=S(=O)(c1ccc(Br)cc1)n1cc(N2CCN3CCCCC3C2)c2ccccc21 (racemic) [Example 6n, 1-(4-Bromophenylsulfonyl)-3-[(6-R,S)-1,4-diaza[4.4. 0]bicyclodecan-4-yl]indole] | < 20 | < 20 | > 80 | < 20 | 
16 | O=S(=O)(c1cccc2ccccc12)n1cc(C2=CCN3CCCC3C2)c2cc(F)cc(F)c21 (racemic) [Example 6kk, 5,7-Difluoro-3-[(8a-R,S)-1,2,3,5,8,8a-hexahydro-7-indolizinyl]-1-naphthalenesulfonylindole] | < 20 | < 20 | > 80 | < 20 | 
17 | COc1ccc2c(c1)c(C1=CCN3CCCC3C1)cn2S(=O)(=O)c1cccc2ccccc12 (racemic) [Example 6nn, 5-Methoxy-3-[(8a-R,S)-1,2,3,5,8,8a-hexahydro-7-indolizinyl]-1-naphthalenesulfonylindole] | < 20 | < 20 | > 80 | < 20 | 
